In ChEMBL document CHEMBL3991601, “The target landscape of clinical kinase drugs” (Science, 2017):
The source made the active and inactive calls. Cut-off read from the data, not from the text of the source, for most assays here: actives have a measured Kd and inactives only a lower limit.

What was measured:
Aurora kinase A = biological target: T1, Aurora kinase A (Homo sapiens, UniProt O14965)
T1 sequence (O14965 whole entry): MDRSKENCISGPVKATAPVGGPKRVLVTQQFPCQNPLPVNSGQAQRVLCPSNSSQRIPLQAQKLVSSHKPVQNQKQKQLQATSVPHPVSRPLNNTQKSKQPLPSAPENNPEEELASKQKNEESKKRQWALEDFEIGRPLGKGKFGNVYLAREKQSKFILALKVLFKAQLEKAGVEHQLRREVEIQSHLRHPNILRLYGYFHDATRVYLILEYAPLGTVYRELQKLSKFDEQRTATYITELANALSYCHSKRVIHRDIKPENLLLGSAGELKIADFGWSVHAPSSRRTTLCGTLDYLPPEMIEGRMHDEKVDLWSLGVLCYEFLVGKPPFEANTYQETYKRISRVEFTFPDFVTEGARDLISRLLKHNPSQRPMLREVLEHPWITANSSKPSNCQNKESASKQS

[1] = biological target: BMP-2-inducible protein kinase (Homo sapiens, UniProt Q9NSY1)
[2] = biological target: Bone morphogenetic protein receptor type-1B (Homo sapiens, UniProt O00238)
Chain of Bone morphogenetic protein receptor type-1B (O00238 whole entry): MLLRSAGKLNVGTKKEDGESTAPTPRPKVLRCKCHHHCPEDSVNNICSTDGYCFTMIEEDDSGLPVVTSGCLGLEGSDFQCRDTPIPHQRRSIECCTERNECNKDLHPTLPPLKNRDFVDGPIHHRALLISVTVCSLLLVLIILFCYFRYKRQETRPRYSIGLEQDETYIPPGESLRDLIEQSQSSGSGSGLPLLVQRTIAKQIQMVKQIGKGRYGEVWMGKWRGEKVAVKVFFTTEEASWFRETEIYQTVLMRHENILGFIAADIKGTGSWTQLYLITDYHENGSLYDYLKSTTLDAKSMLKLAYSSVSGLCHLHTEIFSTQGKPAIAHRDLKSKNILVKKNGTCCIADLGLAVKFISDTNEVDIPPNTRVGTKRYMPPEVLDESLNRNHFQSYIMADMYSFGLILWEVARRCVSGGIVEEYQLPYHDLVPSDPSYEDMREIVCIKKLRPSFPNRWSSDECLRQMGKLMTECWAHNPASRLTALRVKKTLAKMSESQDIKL

[3] = biological target: Calcium/calmodulin-dependent protein kinase type II subunit gamma (Homo sapiens, UniProt Q13555)
Chain of Calcium/calmodulin-dependent protein kinase type II subunit gamma (Q13555 whole entry): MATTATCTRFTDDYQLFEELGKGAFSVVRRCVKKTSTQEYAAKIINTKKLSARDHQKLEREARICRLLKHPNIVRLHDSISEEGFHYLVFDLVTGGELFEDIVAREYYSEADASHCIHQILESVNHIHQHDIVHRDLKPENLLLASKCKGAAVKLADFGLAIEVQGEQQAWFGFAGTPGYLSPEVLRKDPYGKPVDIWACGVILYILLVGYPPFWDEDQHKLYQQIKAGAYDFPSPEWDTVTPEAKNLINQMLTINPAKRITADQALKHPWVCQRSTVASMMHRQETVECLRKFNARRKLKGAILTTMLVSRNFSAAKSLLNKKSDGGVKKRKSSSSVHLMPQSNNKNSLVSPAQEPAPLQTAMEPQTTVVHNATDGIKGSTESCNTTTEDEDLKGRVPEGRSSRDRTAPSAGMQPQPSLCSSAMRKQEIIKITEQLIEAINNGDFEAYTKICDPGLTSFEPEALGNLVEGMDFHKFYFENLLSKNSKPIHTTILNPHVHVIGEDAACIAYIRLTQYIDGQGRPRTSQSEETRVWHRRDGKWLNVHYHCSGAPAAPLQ

[4] = biological target: ATP-dependent RNA helicase DDX3X (Homo sapiens, UniProt O00571)
Chain of ATP-dependent RNA helicase DDX3X (O00571 whole entry): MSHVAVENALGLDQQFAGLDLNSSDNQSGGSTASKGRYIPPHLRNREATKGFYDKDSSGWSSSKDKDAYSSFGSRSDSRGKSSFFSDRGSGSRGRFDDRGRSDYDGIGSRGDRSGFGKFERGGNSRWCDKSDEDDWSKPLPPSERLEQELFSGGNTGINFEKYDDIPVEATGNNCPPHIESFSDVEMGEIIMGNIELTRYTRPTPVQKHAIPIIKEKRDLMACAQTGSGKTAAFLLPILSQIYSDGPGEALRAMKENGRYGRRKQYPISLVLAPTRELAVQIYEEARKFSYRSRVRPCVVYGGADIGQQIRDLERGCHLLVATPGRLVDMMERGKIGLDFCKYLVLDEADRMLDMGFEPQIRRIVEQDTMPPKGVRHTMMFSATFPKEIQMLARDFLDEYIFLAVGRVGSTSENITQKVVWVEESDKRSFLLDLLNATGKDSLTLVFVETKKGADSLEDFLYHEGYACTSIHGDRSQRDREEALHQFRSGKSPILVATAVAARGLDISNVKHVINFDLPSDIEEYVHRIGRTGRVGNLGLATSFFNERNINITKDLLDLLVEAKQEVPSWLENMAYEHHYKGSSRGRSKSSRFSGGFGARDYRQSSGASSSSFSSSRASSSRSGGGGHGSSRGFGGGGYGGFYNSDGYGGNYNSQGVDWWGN

[5] = biological target: Mitogen-activated protein kinase 1 (Homo sapiens, UniProt P28482)
Chain of Mitogen-activated protein kinase 1 (P28482 whole entry, canonical isoform): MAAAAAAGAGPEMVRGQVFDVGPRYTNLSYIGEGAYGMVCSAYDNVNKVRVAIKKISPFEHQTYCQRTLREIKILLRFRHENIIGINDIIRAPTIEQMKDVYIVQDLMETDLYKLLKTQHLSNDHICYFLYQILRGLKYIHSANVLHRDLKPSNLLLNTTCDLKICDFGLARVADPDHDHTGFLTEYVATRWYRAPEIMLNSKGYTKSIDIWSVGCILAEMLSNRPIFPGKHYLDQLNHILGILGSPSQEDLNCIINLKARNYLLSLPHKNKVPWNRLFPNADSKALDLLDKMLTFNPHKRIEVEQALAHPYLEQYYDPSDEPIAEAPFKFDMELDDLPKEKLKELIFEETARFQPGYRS

[6] = biological target: S-adenosylmethionine synthase isoform type-2 (Homo sapiens, UniProt P31153)
Chain of S-adenosylmethionine synthase isoform type-2 (P31153 whole entry, canonical isoform): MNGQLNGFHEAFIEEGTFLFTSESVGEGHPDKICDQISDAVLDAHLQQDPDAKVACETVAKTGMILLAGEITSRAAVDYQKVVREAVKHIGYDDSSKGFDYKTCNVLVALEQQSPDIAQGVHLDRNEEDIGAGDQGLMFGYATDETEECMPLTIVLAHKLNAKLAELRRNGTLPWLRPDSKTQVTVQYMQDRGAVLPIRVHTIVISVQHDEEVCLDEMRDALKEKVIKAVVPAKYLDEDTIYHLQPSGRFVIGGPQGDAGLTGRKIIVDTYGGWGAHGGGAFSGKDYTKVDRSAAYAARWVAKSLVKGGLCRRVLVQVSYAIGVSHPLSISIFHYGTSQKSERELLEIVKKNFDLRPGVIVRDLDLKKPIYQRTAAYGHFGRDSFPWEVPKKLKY

[7] = biological target: T2, Serine/threonine-protein kinase Nek3 (Homo sapiens, UniProt P51956)
T2 sequence (P51956 whole entry): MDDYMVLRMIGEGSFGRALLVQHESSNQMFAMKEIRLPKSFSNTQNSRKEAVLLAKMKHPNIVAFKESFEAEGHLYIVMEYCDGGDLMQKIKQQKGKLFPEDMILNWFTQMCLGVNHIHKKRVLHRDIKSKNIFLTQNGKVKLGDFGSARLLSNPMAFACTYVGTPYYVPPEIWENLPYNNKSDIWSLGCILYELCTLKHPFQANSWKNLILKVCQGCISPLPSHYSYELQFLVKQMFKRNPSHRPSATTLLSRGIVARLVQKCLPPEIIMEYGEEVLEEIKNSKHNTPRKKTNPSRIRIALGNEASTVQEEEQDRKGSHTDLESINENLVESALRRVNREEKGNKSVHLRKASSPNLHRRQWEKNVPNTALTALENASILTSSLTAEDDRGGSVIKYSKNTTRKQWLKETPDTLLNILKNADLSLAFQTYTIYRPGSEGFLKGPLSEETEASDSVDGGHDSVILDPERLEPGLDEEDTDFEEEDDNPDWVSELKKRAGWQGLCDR

[8] = biological target: Serine/threonine-protein kinase PAK 4 (Homo sapiens, UniProt O96013)
Chain of Serine/threonine-protein kinase PAK 4 (O96013 whole entry): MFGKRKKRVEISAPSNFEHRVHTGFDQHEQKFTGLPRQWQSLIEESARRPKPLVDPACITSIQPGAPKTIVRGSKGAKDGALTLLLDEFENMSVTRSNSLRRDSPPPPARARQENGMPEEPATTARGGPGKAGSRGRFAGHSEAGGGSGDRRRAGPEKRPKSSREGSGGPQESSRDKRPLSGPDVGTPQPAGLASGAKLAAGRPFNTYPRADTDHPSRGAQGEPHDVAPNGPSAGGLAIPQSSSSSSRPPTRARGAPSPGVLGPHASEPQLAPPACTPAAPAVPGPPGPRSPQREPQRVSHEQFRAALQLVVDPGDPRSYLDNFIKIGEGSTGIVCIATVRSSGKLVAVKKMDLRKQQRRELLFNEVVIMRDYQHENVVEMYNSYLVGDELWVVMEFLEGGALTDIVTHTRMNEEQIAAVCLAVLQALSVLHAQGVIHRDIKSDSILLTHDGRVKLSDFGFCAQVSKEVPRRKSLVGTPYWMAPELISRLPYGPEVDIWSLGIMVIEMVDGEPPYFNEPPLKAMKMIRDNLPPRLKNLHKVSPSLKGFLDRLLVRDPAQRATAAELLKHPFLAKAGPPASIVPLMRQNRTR

[9] = biological target: T3, Phosphatidylinositol 5-phosphate 4-kinase type-2 gamma (Homo sapiens, UniProt Q8TBX8)
T3 sequence (Q8TBX8 whole entry): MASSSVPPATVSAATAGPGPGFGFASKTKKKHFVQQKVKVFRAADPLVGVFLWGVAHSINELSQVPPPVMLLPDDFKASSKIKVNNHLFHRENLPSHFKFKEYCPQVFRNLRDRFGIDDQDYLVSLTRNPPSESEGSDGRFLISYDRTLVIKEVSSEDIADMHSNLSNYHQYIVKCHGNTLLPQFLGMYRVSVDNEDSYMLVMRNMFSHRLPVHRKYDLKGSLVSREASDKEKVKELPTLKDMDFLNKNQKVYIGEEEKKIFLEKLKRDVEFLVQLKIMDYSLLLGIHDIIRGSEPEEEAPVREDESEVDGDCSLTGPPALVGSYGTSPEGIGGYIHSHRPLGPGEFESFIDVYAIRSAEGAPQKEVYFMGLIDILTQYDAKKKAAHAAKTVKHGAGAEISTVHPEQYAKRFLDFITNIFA

[10] = biological target: Ribosomal protein S6 kinase alpha-5 (Homo sapiens, UniProt O75582)
Chain of Ribosomal protein S6 kinase alpha-5 (O75582 whole entry): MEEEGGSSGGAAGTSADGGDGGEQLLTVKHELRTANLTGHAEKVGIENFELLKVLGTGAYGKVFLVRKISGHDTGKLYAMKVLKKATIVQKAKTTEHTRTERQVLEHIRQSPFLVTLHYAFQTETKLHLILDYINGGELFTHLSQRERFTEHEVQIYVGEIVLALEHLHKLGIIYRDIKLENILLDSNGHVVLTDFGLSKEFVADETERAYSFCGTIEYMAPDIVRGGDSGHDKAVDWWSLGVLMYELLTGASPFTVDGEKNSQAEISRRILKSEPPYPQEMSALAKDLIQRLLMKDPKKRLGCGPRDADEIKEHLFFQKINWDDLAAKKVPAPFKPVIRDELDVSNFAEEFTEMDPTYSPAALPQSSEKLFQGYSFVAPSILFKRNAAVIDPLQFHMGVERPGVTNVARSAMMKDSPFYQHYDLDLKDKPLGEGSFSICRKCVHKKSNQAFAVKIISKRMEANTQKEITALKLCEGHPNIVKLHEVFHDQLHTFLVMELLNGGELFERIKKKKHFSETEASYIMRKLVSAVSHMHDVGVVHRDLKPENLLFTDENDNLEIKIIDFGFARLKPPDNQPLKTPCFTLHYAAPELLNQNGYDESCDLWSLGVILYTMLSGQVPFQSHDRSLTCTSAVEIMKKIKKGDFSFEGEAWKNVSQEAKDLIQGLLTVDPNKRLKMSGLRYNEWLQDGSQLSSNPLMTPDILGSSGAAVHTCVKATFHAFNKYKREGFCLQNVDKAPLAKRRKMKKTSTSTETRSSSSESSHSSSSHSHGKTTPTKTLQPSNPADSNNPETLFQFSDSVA

Activated CDC42 kinase 1 = Activated CDC42 kinase 1 (Homo sapiens, UniProt Q07912)
Chain of Activated CDC42 kinase 1 (Q07912 whole entry): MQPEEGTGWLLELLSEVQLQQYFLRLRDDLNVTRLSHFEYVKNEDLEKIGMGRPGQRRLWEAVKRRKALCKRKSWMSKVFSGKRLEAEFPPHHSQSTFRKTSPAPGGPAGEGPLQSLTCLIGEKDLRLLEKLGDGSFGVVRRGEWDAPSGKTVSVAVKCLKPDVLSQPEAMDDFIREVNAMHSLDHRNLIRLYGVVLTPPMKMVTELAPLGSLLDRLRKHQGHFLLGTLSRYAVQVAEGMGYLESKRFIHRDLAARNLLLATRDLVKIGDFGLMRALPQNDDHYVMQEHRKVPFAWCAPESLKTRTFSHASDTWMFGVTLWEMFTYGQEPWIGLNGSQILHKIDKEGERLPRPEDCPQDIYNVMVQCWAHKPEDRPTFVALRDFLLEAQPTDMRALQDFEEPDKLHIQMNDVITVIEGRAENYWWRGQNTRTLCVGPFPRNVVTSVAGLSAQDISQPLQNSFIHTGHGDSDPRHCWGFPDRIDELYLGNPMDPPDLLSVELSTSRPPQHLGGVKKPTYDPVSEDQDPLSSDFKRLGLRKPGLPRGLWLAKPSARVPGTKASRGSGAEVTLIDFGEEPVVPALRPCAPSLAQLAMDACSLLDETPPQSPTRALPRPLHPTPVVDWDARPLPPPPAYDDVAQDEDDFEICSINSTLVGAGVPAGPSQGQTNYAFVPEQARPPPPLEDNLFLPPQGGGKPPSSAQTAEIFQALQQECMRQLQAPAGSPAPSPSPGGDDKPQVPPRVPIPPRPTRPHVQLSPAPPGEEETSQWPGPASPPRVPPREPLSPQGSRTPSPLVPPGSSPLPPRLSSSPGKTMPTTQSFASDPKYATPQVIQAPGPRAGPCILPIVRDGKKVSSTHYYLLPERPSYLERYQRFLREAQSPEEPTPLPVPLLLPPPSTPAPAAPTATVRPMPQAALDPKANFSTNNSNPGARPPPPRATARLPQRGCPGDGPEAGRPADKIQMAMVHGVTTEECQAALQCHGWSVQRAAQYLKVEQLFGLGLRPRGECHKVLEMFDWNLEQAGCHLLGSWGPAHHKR

[11] = biological target: T4, EKC/KEOPS complex subunit TP53RK (Homo sapiens, UniProt Q96S44)
T4 sequence (Q96S44 whole entry): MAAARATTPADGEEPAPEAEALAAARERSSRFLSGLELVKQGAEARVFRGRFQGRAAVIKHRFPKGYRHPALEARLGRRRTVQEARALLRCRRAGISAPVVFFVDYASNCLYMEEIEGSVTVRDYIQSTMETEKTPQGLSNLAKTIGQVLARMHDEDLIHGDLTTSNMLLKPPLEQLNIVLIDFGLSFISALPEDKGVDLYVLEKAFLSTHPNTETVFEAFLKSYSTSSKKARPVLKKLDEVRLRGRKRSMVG
Note: in the data inactive means no Kd found up to 30 µM.

Compound	Kd (Aurora kinase A)	Kd [1]	Kd [2]	Kd [3]	Kd [4]	Kd [5]	Kd [7]	Kd [8]	Kd [9]	Kd [10]	Kd (Activated CDC42 kinase 1)	Kd [11]	Kd [6]
O=C(NC[C@H](O)CO)c1ccncc1Nc1ccc(I)cc1F [PIMASERTIB]	> 30 µM (inactive)	> 30 µM (inactive)	> 30 µM (inactive)	> 30 µM (inactive)	> 30 µM (inactive)	> 30 µM (inactive)	> 30 µM (inactive)	> 30 µM (inactive)	> 30 µM (inactive)	> 30 µM (inactive)	> 30 µM (inactive)	> 30 µM (inactive)	> 30 µM (inactive)
O=C(NOC[C@H](O)CO)c1ccc(F)c(F)c1Nc1ccc(I)cc1F [MIRDAMETINIB]	> 30 µM (inactive)	> 30 µM (inactive)	> 30 µM (inactive)	> 30 µM (inactive)	> 30 µM (inactive)	> 30 µM (inactive)	> 30 µM (inactive)	> 30 µM (inactive)	> 30 µM (inactive)	> 30 µM (inactive)	> 30 µM (inactive)	> 30 µM (inactive)	–
COc1cc(Nc2ncc(F)c(Nc3ccc4c(n3)N(COP(=O)(O)O)C(=O)C(C)(C)O4)n2)cc(OC)c1OC [FOSTAMATINIB]	0.3 µM (active)	> 30 µM (inactive)	> 30 µM (inactive)	> 30 µM (inactive)	> 30 µM (inactive)	> 30 µM (inactive)	> 30 µM (inactive)	> 30 µM (inactive)	–	> 30 µM (inactive)	> 30 µM (inactive)	> 30 µM (inactive)	> 30 µM (inactive)
FC(F)(F)c1ccc(CNc2ccc(Cc3c[nH]c4ncc(Cl)cc34)cn2)cn1 [PEXIDARTINIB]	> 30 µM (inactive)	> 30 µM (inactive)	> 30 µM (inactive)	> 30 µM (inactive)	> 30 µM (inactive)	> 30 µM (inactive)	> 30 µM (inactive)	> 30 µM (inactive)	> 30 µM (inactive)	> 30 µM (inactive)	> 30 µM (inactive)	> 30 µM (inactive)	–
N#CCNC(=O)c1ccc(-c2ccnc(Nc3ccc(N4CCOCC4)cc3)n2)cc1 [MOMELOTINIB]	> 30 µM (inactive)	–	> 30 µM (inactive)	–	> 30 µM (inactive)	> 30 µM (inactive)	0.286 µM (active)	> 30 µM (inactive)	> 30 µM (inactive)	> 30 µM (inactive)	> 30 µM (inactive)	> 30 µM (inactive)	> 30 µM (inactive)
O=S(=O)(c1cccc2c(O)nccc12)N1CCCNCC1 [HYDROXYFASUDIL]	> 30 µM (inactive)	> 30 µM (inactive)	> 30 µM (inactive)	> 30 µM (inactive)	> 30 µM (inactive)	–	> 30 µM (inactive)	> 30 µM (inactive)	> 30 µM (inactive)	> 30 µM (inactive)	> 30 µM (inactive)	> 30 µM (inactive)	> 30 µM (inactive)
CC1(COc2ccc3c(c2)ncn3-c2ccc3cccc(N4CCC(N)CC4)c3n2)COC1 [CRENOLANIB]	> 30 µM (inactive)	1.2 µM (active)	> 30 µM (inactive)	0.766 µM (active)	> 30 µM (inactive)	> 30 µM (inactive)	> 30 µM (inactive)	–	> 30 µM (inactive)	> 30 µM (inactive)	> 30 µM (inactive)	> 30 µM (inactive)	> 30 µM (inactive)
CC(C)CC(=O)Nc1[nH]nc2c1CN(C(=O)C1CCN(C)CC1)C2(C)C [PHA-793887]	> 30 µM (inactive)	> 30 µM (inactive)	> 30 µM (inactive)	> 30 µM (inactive)	> 30 µM (inactive)	–	> 30 µM (inactive)	0.864 µM (active)	> 30 µM (inactive)	> 30 µM (inactive)	> 30 µM (inactive)	> 30 µM (inactive)	> 30 µM (inactive)
O=C(O)c1ccc2c(c1)nc(Nc1cccc(Cl)c1)c1ccncc12 [SILMITASERTIB]	> 30 µM (inactive)	> 30 µM (inactive)	> 30 µM (inactive)	> 30 µM (inactive)	> 30 µM (inactive)	> 30 µM (inactive)	> 30 µM (inactive)	> 30 µM (inactive)	1.11 µM (active)	> 30 µM (inactive)	> 30 µM (inactive)	–	> 30 µM (inactive)
C=CCn1c(=O)c2cnc(Nc3ccc(N4CCN(C)CC4)cc3)nc2n1-c1cccc(C(C)(C)O)n1 [ADAVOSERTIB]	> 30 µM (inactive)	> 30 µM (inactive)	> 30 µM (inactive)	> 30 µM (inactive)	> 30 µM (inactive)	> 30 µM (inactive)	0.837 µM (active)	–	> 30 µM (inactive)	> 30 µM (inactive)	–	> 30 µM (inactive)	> 30 µM (inactive)
O=S(=O)(c1cccc2cnccc12)N1CCCNCC1 [FASUDIL]	> 30 µM (inactive)	–	–	> 30 µM (inactive)	> 30 µM (inactive)	–	> 30 µM (inactive)	> 30 µM (inactive)	> 30 µM (inactive)	–	–	> 30 µM (inactive)	> 30 µM (inactive)
CCc1nc(C(N)=O)c(Nc2ccc(N3CCC(N4CCN(C)CC4)CC3)c(OC)c2)nc1NC1CCOCC1 [GILTERITINIB]	0.184 µM	0.046 µM (active)	–	0.169 µM (active)	> 30 µM (inactive)	> 30 µM (inactive)	2.84 µM (active)	> 30 µM (inactive)	> 30 µM (inactive)	> 30 µM (inactive)	3.15 µM (active)	2.72 µM (active)	> 30 µM (inactive)

Further lines, with some results ahead:

Kd (Aurora kinase A)	Kd [1]	Kd [2]	Kd [3]	Kd [4]	Kd [5]	Kd [7]	Kd [8]	Kd [9]	Kd [10]	Kd (Activated CDC42 kinase 1)	Kd [11]	Compound	Kd [6]
> 30 µM (inactive)	> 30 µM (inactive)	> 30 µM (inactive)	> 30 µM (inactive)	> 30 µM (inactive)	> 30 µM (inactive)	> 30 µM (inactive)	> 30 µM (inactive)	> 30 µM (inactive)	> 30 µM (inactive)	> 30 µM (inactive)	> 30 µM (inactive)	O=C(Nc1ccc(OC(F)(F)F)cc1)c1sccc1NCc1ccnc2ccccc12 [OSI-930]	> 30 µM (inactive)
> 30 µM (inactive)	> 30 µM (inactive)	> 30 µM (inactive)	–	> 30 µM (inactive)	> 30 µM (inactive)	> 30 µM (inactive)	> 30 µM (inactive)	> 30 µM (inactive)	> 30 µM (inactive)	> 30 µM (inactive)	> 30 µM (inactive)	CCOc1ccn(-c2ccc(F)cc2)c(=O)c1C(=O)Nc1ccc(Oc2ccnc(N)c2Cl)c(F)c1 [BMS-777607]	> 30 µM (inactive)
> 30 µM (inactive)	10.9 µM (active)	> 30 µM (inactive)	> 30 µM (inactive)	> 30 µM (inactive)	> 30 µM (inactive)	> 30 µM (inactive)	> 30 µM (inactive)	> 30 µM (inactive)	> 30 µM (inactive)	> 30 µM (inactive)	> 30 µM (inactive)	Cc1cc(C(=O)Nc2cc(Oc3ccc4nc(NC(=O)C5CC5)cn4n3)ccc2C)n(C)n1 [TAK-593]	–
